pIC50: −log10 of the molar value. “Also recorded” adds a separate entry of the source.
Assays:
[1] = in vivo; cited from earlier work
[2] = mouse, in vivo
From the text: The scores were compared to the Naïve cohort.
Colonic mucosal and mesenteric blood flow measurements.

DSS colitis mice = assay: DSS colitis in mice, transanal treatment: body weight, fecal blood, histology, apoptosis; format: in vivo, C57BL/6 mice; details: for weight loss after 7 days (body weight change, FIG. 10B): 2.5% DSS, DCL and Losartan 10× (2,500 μg per dose), Candesartan 1× (250 μg per dose), mean±SD, placebo −15.81±6.59; for weight loss after 7 days (body weight change, FIG. 10B) / period before developing heme positive stools: transanal daily; for weight loss after 1 week (percentage change from baseline body weight) / period before developing heme positive stools: DSS; for weight loss after 1 week (percentage change from baseline body weight): transanal daily 7 days, placebo 15.8±6.5, P<0.001 versus placebo; for period before developing heme positive stools: placebo 5.64±1.22 days
Description: Animals. Specific pathogen-free male, 8-week old C57BL/6 mice (Taconic Farms Inc, Germantown, N.Y.) were maintained in a 12-h night rhythm at 23° C. and a relative humidity of 40-60%. Animals were fed standard rodent chow (LabDiet 5001Rodent Diet, PMI Nutrition International, LLC, Brentwood, Mo.) ad libitum. All experiments were approved by the University Committee on Use and Care of Animals at the University of Michigan. Experimental colitis design. Dextran sodium sulfate (DSS) was administered through drinking water for 7 days. Mice were randomly divided into 5 groups. In the DSS+placebo group, mice were given […] (total volume 0.25 ml) each day as a control. […] A[…]-A were given at 10-fold higher doses (losartan and […]: 10 mg/kg/day, candesartan: 1 mg/kg/day) than typically given systemically, and daily dosing was continued for 7 days. The study drugs were administered using a blunt needle via the […] route. Testing conducted during development of embodiments of the invention characterized that this amount of drug evenly coated the entire colon. A separate group of mice contained naive mice as an additional control group which received plain drinking water ad libitum, and received only water (0.25 ml, […]) without AT 1 aR-A. Harvesting. Mice were euthanized 7 days after DSS by carbon dioxide asphyxiation. […] Formalin preserved sections of distal colon were preserved in paraffin, sectioned transversely (5 μm) and stained with hematoxylin and eosin (H&E). The remaining colon was immediately processed for mucosal cell isolation. Assessment of colitis. The body weight of each mouse, stool characteristics, and intestinal bleeding were recorded. All animals were evaluated daily. Occult bleeding was tested using a hemoccult-card test (Beckman Coulter Inc, Fullerton, Calif.). Histologic grading of colitis was performed in a masked fashion (investigator blinded to the study group) according to previously described methods. (See, e.g., Spencer et al., et al. Dig Dis Sci 2007; 52:1060-70). Crypt shortening and distortion, together with inflammatory infiltrative thickening of the lamina propria, were assigned a score 0 (normal) through 4 (complete loss of crypt, ulceration, and severe thickening of lamina propria). The individual colitis score (0-4) from four quadrants of a left-sided colonic section were summed, such that the maximum score for a given section was 16, and the minimum score was 0. The mean of at least 2 sections were assessed in this manner for each mouse. Epithelial cell apoptosis assays. A terminal deoxynucleotidyl transferase biotin-dUTP nick end labeling (TUNEL) staining method was used to detect apoptosis, according to manufacturer's instructions (APOPTAG PLUS Peroxidase InSitu Apoptosis Detection Kit, Chemicon International Inc, Temecula, Calif.), with slight modification. Slides were incubated with only one-third of the recommended concentration of TdT enzyme, in order to avoid over-staining. Assessment of apoptosis consisted of separate counting of all TUNEL positive EC in all well oriented crypts and villi separately, and dividing the total number of counted apoptotic cells per number of analyzed crypts and villi, respectively. Apoptotic Index in the region of villi is expressed as the number of TUNEL positive cells per one villus. The addition of both crypt and villus apoptotic indices is expressed as the apoptotic index per crypt-villus complex (at 20× magnification).

AT1a receptor [3] = details: cited from earlier work
[4] = Blood pressure and heart rate by tail-cuff in DSS mice after transanal treatment; format: in vivo, C57BL/6 mice; details: day 6 of DSS; for systolic blood pressure change (Delta BP, post − pre treatment): 1 hour before and 2 hr after treatment; for heart rate change: compared with naïve group
From the text: Measurements of Blood Pressure and Heart Rate. […] The system was designed to perform all functions automatically, including a programmable routine of cuff inflation and deflation, analysis and assignment of pulse rate and blood pressure, and recording of data electronically. To avoid variations in blood pressures, results were expressed using % Delta Blood Pressure (percent change in systolic pressures prior to and after treatment). Heart rate was also expressed as the change in rate before and after final dosing of […] drug/placebo.

[5] = tested on: mucosal RNA of regulatory factors associated with inflammatory bowel disease; assay: Mucosal RNA of regulatory factors by RT-PCR, DSS mice, oral administration; format: in vivo; details: oral therapy, 7 days
Description: Experiments were conducted during development of embodiments of the invention in order to determine if AT1a antagonists or derivatives thereof could treat signs and symptoms of inflammatory bowel disease (e.g., inflammatory conditions of the intestine) when administered orally. Materials and methods were used as described in Example 3 with the following exceptions. AT1a antagonists or derivatives thereof were suspended in water. Each dose was given via the oral route using a blunt tipped needle by gavage directly into the stomach of each mouse. Dosing was daily in a single administration over a period of seven days. Realtime PCR was utilized to measure the abundance of mucosal RNA of several regulatory factors associated with inflammatory bowel disease. Factors studied were: TNF-α(tumor necrosis factor-alpha); interleukin-1b (IL-1b); IL-6; IL-10; transforming growth factor-beta (TGF-b) and Foxp3 (a T-cell regulatory factor). […] Realtime PCR was also utilized to measure the abundance of mucosal RNA of several additional regulatory factors associated with inflammatory bowel disease. IL-12p40, the regulatory factor for interleukin-12 (IL-12), and a key regulator for the up-regulation of interferon gamma (IFN-g); IFN-g; […]

AT1a receptor [6] = target: T1, AT1a receptor (Rattus norvegicus, UniProt P25095); assay: Ang II-dependent NF-κB-luciferase reporter assay in HepG2-AR cells; format: cell-based; details: Ang II 1 μM, 16 hours, Ang II alone = 100% induction, read-out: inhibition of NF-κB activation
T1 construct: expressed in transfected cells; host or cells: HepG2 (HepG2-AR), stably transfected
T1 sequence (P25095 1-359): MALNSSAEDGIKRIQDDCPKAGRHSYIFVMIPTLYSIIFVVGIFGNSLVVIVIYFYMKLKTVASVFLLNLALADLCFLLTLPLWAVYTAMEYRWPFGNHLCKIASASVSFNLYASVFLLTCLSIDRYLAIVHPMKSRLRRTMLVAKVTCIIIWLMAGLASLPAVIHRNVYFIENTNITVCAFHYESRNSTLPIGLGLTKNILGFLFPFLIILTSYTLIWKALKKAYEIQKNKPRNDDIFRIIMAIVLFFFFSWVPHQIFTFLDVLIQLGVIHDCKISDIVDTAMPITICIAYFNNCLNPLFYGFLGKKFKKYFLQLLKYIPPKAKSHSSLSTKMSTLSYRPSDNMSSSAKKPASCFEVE
From the text: In vitro assessment of AT1aR antagonism. […] This model makes use of the fact that Ang II-dependent stimulation of the AT1a receptor results in rapid activation of the NF-κB transcription factor. In this model, HepG2-AR cells, which stably express the AT1a receptor, were transiently transfected with an NF-κB-luciferase reporter plasmid and a control renilla plasmid (to correct for transfection efficiency). […] Cells were harvested and the luciferase/renilla ratio determined using the Promega Dual Luciferase Assay Kit. […] Loss of Ang II-dependent luciferase induction (measured by luminometer; LMax; Molecular Devices), due to the presence of receptor blockade was then calculated and used to indicate the extent of successful blockade of the AT1a receptor signaling pathway.
HepG2-AR cells, which stably express the AT1a receptor, were transiently transfected with an NF-κB-luciferase reporter plasmid and a control renilla plasmid (to correct for transfection efficiency). […] Cells were harvested and the luciferase/renilla ratio determined using a luciferase assay kit (e.g., Promega Dual Luciferase Assay Kit). […] The fold induction in the presence of varying doses of inhibitor was then converted to a percentage of this maximal induction.

AT1a receptor [7] = details: read-out: IC50 against the binding of Ang II to the AT1a receptor; cited from earlier work
Ang I-infused dogs = details: i.v., 1 mg/kg; cited from earlier work

| SMILES | oral activity [1] | colonic blood flow at the mucosal level [2] | mesenteric blood flow [2] | weight loss after 7 days (body weight change, FIG. 10B) (DSS colitis mice) [%] | weight loss after 1 week (percentage change from baseline body weight) (DSS colitis mice) [%] | period before developing heme positive stools (DSS colitis mice) [days] | receptor blockade function compared with losartan (AT1a receptor [3]) | systolic blood pressure change (Delta BP, post − pre treatment) [4] | heart rate change [4] | mucosal RNA of ADAM17 [5] | systolic blood pressure change (Delta BP, post − pre treatment) ([4]; listed as Candesartan) | systolic blood pressure change (Delta BP, post − pre treatment) ([4]; listed as candasartan) | inhibition at 60 µM (AT1a receptor [6]) [%] | systolic blood pressure change (Delta BP, post − pre treatment) ([4]; listed as Losartan) | pIC50 (AT1a receptor [7]) | time a ≧20 mmHg drop in mean arterial blood pressure (MABP) was maintained (Ang I-infused dogs) [min] | mucosal RNA of IL-12p40, IFN-g, IL-17, AT1aR and ADAM17 [5] |
| --- | --- | --- | --- | --- | --- | --- | --- | --- | --- | --- | --- | --- | --- | --- | --- | --- | --- |
| CCCCc1ncc(CO)n1Cc1ccc(-c2ccccc2-c2nn[nH]n2)cc1 [DCL, des-chloro losartan] | lacks oral activity | failed to change | failed to change | −2.02±4.34 | 2.02±4.34 | 7.00 ± 1.4 | nearly the same receptor blockade function as losartan | did not significantly change BP; also recorded: no change in systolic blood pressure | not significantly different | marked decline in ADAM17 | – | – | – | – | – | – | – |
| CCOc1nc2cccc(C(=O)O)c2n1Cc1ccc(-c2ccccc2-c2nnn[nH]2)cc1 [candesartan] | – | 0.92±0.20 | 1.56±0.33 | −0.63±1.63 | 0.63±1.63 | 8.0 ± 0.0 | – | decline in systolic BP | declined significantly | – | resulted in a decline | significant decline in blood pressure | – | – | – | – | – |
| CCCCc1nc(Cl)c(CO)n1Cc1ccc(-c2ccccc2-c2nn[nH]n2)cc1 [losartan] | – | 0.88±0.32 | 1.97±0.58 | 0.07±2.50 | 0.07±2.50 | 6.8 ± 2.7 | – | significant decline in blood pressure | not significantly different | – | – | – | 90 | decline in systolic BP; also recorded: resulted in a decline | 7.30 | 30 | marked decline in several of these factors |

— patent publication US8293776B2, “Compositions and methods for treating inflammatory conditions of the bowel” (The Regents of the University of Michigan, priority 2008, dated 2012)
